pKi: −log10 of the molar value. Where a name gives a salt, the structure may show the parent alone.

The target in the assay is T1, human recombinant GABAAR containing α5β3γ2 subunits (benzodiazepine site) (Homo sapiens, UniProt P18507+P31644).
T1 construct: expressed in transfected cells; host or cells: mouse L(tk−) cells, dexamethasone-inducible vector pMSGneo
T1 sequence (P31644 32-462): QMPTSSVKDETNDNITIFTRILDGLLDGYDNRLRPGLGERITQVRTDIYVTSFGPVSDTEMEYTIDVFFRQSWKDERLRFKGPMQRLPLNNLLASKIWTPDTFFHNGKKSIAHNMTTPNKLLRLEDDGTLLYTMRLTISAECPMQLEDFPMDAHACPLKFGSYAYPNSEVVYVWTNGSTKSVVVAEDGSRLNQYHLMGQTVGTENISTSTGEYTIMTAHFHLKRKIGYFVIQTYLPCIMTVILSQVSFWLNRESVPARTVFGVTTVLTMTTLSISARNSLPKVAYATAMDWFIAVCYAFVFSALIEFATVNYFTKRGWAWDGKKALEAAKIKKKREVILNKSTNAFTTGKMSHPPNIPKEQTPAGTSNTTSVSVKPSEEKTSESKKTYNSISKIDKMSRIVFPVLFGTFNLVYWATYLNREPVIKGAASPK
T1 sequence (P28472 26-473 partner): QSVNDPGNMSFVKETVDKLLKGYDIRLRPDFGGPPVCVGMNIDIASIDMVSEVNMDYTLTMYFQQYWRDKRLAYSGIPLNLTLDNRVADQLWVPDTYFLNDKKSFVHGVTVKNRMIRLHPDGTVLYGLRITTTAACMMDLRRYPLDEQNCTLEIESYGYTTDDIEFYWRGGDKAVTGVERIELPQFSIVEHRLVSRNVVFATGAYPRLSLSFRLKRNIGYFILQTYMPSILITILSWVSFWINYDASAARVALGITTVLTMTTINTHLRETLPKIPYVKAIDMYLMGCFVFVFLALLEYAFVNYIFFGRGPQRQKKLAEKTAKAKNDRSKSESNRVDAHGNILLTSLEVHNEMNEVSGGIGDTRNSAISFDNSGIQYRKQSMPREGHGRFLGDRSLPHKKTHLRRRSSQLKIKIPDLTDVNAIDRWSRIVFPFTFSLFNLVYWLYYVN
T1 sequence (P18507 40-475): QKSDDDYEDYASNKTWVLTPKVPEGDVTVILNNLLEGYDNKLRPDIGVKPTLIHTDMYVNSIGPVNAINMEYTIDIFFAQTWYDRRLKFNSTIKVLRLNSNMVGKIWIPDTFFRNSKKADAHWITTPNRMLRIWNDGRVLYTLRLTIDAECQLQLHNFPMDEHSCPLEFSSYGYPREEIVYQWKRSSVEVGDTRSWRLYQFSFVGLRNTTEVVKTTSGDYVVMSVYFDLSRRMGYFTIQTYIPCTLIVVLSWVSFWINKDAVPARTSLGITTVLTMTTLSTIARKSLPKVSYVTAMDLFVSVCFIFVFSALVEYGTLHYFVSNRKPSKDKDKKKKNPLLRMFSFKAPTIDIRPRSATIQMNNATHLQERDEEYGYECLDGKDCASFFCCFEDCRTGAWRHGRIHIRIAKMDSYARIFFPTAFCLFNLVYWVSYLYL
As to the kind of experiment: In vitro radioligand binding assay (α5-GABAAR Ki). The conditions noted are these: inhibition of [3H]Ro15-1788 binding, membranes of L(tk−) cells expressing human α5β3γ2; read-out: α5-GABAAR Ki. The text has this: Mouse L(tk^−) cells stably expressing human α1β3γ2, α2β3γ2, α3β3γ2, α5β3γ2 GABAARs generated by transfection of the individual subunits in the dexamethasone-inducible expression vector pMSGneo in mouse L(tk^−) cells (Hadingham et al., 1993, Mol. Pharmacol. 43:970-975 and 1993, Mol. Pharmacol. 44:1211-1218) were used for binding and functional assays. For certain compounds, HEK293 cells stable expressing the human α1β3γ2L, α2β3γ2L, α3β3γ2L and α5β3γ2L GABAA receptors were used to evaluate their functional effects in a SyncroPatch electrophysiology assay.
L(tk^−) cells stably expressing human α1β3γ2, α2β3γ2, α3β3γ2, α5β3γ2 GABAARs were maintained in DMEM F12 medium supplemented with 10% Foetal Bovine Serum, 1% Penicillin/Streptomycin and 1 mg/mL Geneticin G418 in an incubator at 37° C. with a humidified atmosphere with 5% CO2.
The affinity (Ki) of compounds for the benzodiazepine site of human recombinant GABAARs was measured by their ability to inhibit the binding of the selective benzodiazepine antagonist [^3H] Ro15-1788 ([^3H] flumazenil).
L(tk^−) cells expressing human recombinant GABAAR containing α1β3γ2, α2β3γ2, α3β3γ2, α5β3γ2 subunits were harvested and membranes were prepared for each receptor combination in phosphate buffer (K2PO4 10 mM, pH 7.0) (Hadingham et al. (1992) Proc. Natl. Acad. Sci. USA; 89 (14): 6378-82). Protein concentration, receptor expression and the Kd of [^3H] Ro15-1788 were determined before Ki values of compounds were evaluated. For Kd evaluation, saturation binding curves were obtained by incubating membrane with various concentrations of [^3H] Ro15-1788 (82.5 Ci/mM), with nonspecific binding measured in the presence of 1 μM TP003.
For Ki evaluation, cell membranes were incubated with 4 nM [^3H] Ro15-1788 along with a range of concentrations of test compound. Nonspecific binding was determined using 1 μM TP003. All incubations were performed for 1 hour at 4° C. in assay buffer. The total assay volume was 0.5 mL, containing 100 μg membrane protein/well α1β3γ2, α2β3γ2, α3β3γ2 and 50 μg membrane protein/well for α53γ2. Incubations were terminated by filtration and washing with ice cold Tris-HCl buffer (50 mM, pH=7.4) over Whatman GF/B filters and the radioactivity of the filters was measured using liquid scintillation counting.
The % inhibition of [^3H] Ro15-1788 binding was plotted as a function of compound concentration and the IC50 calculated. From the IC50, the affinity (Ki) was calculated using the method of Cheng and Prusoff using the Kd values obtained for [^3H] Ro15-1788.
For the compound `COc1nc(-c2nccn3ccnc23)ccc1NC(=O)c1c(-c2ccccc2)noc1C` [Example 38, N-(6-Imidazo[1,2-a]pyrazin-8-yl-2-methoxy-3-pyridyl)-5-methyl-3-phenyl-isoxazole-4-carboxamide], the pKi was 7.24. Regarding `COc1nc(-c2ccc(CN3CCOCC3)cc2)ccc1NC(=O)c1c(-c2ccccc2)noc1C` [Example 225, N-[2-methoxy-6-[4-(morpholinomethyl)phenyl]-3-pyridyl]-5-methyl-3-phenyl-isoxazole-4-carboxamide], the negative logarithm of the Ki (pKi) was 8.11.

As for `COc1nc(-c2cc(OC)c3cn[nH]c3c2)ccc1NC(=O)c1c(-c2ccccc2)noc1C` [Example 32, N-[2-Methoxy-6-(4-methoxy-1H-indazol-6-yl)-3-pyridyl]-5-methyl-3-phenyl-isoxazole-4-carboxamide], the negative logarithm of the Ki (pKi) is 6.96. Take `COc1nc(-c2cnc(N(C)C)c(Cl)c2)ccc1NC(=O)c1c(-c2ccccc2)noc1C` [Example 98, N-(5′-Chloro-6′-(dimethylamino)-6-methoxy-[2,3′-bipyridin]-5-yl)-5-methyl-3-phenylisoxazole-4-carboxamide]: the pKi was 6.18. Turning to `COc1nc(-c2nnc3n2CCN(C)C3)ccc1NC(=O)c1c(-c2ccccc2)noc1C` [Example 195, N-(2-Methoxy-6-(7-methyl-5,6,7,8-tetrahydro-[1,2,4]triazolo[4,3-a]pyrazin-3-yl)pyridin-3-yl)-5-methyl-3-phenylisoxazole-4-carboxamide], the pKi was 7.63. On to `COc1nc(-c2ccc3c(=O)[nH]ncc3c2)ccc1NC(=O)c1c(-c2ccccc2)noc1C` [Example 117, N-(2-Methoxy-6-(1-oxo-1,2-dihydrophthalazin-6-yl)pyridin-3-yl)-5-methyl-3-phenylisoxazole-4-carboxamide], for which the pKi is 8.59.

For the compound `COc1nc(-c2ccc(CN3CC4COCC4C3)cc2)ccc1NC(=O)c1c(-c2ccccc2)noc1C` (stereo not shown) [Example 233, N-(2-methoxy-6-(4-((tetrahydro-1H-furo[3,4-c]pyrrol-5 (3H)-yl)methyl)phenyl)pyridin-3-yl)-5-methyl-3-phenylisoxazole-4-carboxamide], the pKi is 8.15. With `Cc1onc(-c2ccccc2)c1C(=O)Nc1ccc(-n2ccnc2)[nH]c1=O` [Example 212, N-(6-Imidazol-1-yl-2-oxo-1H-pyridin-3-yl)-5-methyl-3-phenyl-isoxazole-4-carboxamide], the pKi is 6.50. As to `COc1nc(-c2ccc(C=O)cc2)ccc1NC(=O)c1c(-c2ccccc2)noc1C` [Example 220, N-[6-(4-formylphenyl)-2-methoxy-3-pyridyl]-5-methyl-3-phenyl-isoxazole-4-carboxamide], the pKi was 8.47. In the case of `COc1nc(-c2cccc(N(C)C)c2)ccc1NC(=O)c1c(-c2ccccc2)noc1C` [Example 16, N-[6-[3-(Dimethylamino)phenyl]-2-methoxy-3-pyridyl]-5-methyl-3-phenyl-isoxazole-4-carboxamide], the pKi is 6.39. Take `COc1nc(-c2cnc(Cl)nc2)ccc1NC(=O)c1c(-c2ccccc2)noc1C` [Example 36, N-[6-(2-Chloropyrimidin-5-yl)-2-methoxy-3-pyridyl]-5-methyl-3-phenyl-isoxazole-4-carboxamide]: the pKi was 8.70. Turning to `CCOC(=O)Cn1c(-c2ccc(NC(=O)c3c(-c4ccccc4)noc3C)c(OC)n2)cnc1C` [Example 134, Ethyl 2-[5-[6-methoxy-5-[(5-methyl-3-phenyl-isoxazole-4-carbonyl)amino]-2-pyridyl]-2-methyl-imidazol-1-yl] acetate], the pKi was 7.28.

With `COc1nc(-c2ccncn2)ccc1NC(=O)c1c(-c2ccccc2)noc1C` [Example 65, N-(2-Methoxy-6-pyrimidin-4-yl-3-pyridyl)-5-methyl-3-phenyl-isoxazole-4-carboxamide], the pKi is 7.31.

In the case of `COc1nc(-c2cnc(CN)nc2)ccc1NC(=O)c1c(-c2ccc(F)cc2)noc1NCCCCl` [Example 211, N-[6-[2-(Aminomethyl)pyrimidin-5-yl]-2-methoxy-3-pyridyl]-5-(3-chloropropylamino)-3-(4-fluorophenyl) isoxazole-4-carboxamide hydrochloride], the pKi is 8.89. With `Cc1onc(-c2ccccc2)c1C(=O)Nc1ccc(-c2cnoc2)nc1OC(C)C` [Example 227, N-(2-isopropoxy-6-(isoxazol-4-yl)pyridin-3-yl)-5-methyl-3-phenyl-isoxazole-4-carboxamide], the pKi was 9.30. As to `COc1nc(-c2ccccn2)ccc1NC(=O)c1c(-c2ccccc2)noc1C` [Example 73, N-[2-Methoxy-6-(2-pyridyl)-3-pyridyl]-5-methyl-3-phenyl-isoxazole-4-carboxamide], the pKi is 6.81. As to `COc1nc(-c2cnoc2)ccc1NC(=O)c1c(-c2ccc(F)cc2)noc1N1CCC1` [Example 210, 5-(Azetidin-1-yl)-3-(4-fluorophenyl)-N-(6-isoxazol-4-yl-2-methoxy-3-pyridyl) isoxazole-4-carboxamide], the pKi was 7.86. For the compound `COc1nc(-c2ccc(CN)cc2)ccc1NC(=O)c1c(-c2ccccc2)noc1C` [Example 182, N-[6-[4-(Aminomethyl)phenyl]-2-methoxy-3-pyridyl]-5-methyl-3-phenyl-isoxazole-4-carboxamide hydrochloride], the pKi is 8.06.

On to `COc1nc(C)c(-c2ccc(NC(=O)c3c(-c4ccccc4)noc3C)c(OC)n2)c(C)n1` [Example 193, N-[2-Methoxy-6-(2-methoxy-4,6-dimethyl-pyrimidin-5-yl)-3-pyridyl]-5-methyl-3-phenyl-isoxazole-4-carboxamide], for which the pKi was 7.64.

Turning to `COc1nc(-c2ccc(OC(F)F)nc2)ccc1NC(=O)c1c(-c2ccccc2)noc1C` [Example 88, N-(6′-(Difluoromethoxy)-6-methoxy-[2,3′-bipyridin]-5-yl)-5-methyl-3-phenyl-isoxazole-4-carboxamide], the pKi is 7.58. Turning to `COc1ncc(-c2ccc(NC(=O)c3c(-c4ccccc4)noc3C)c(OC)n2)c(C)n1` [Example 191, N-[2-Methoxy-6-(2-methoxy-4-methyl-pyrimidin-5-yl)-3-pyridyl]-5-methyl-3-phenyl-isoxazole-4-carboxamide], the pKi is 8.89.

As for `COc1nc(-c2cnccn2)ccc1NC(=O)c1c(-c2ccccc2)noc1C` [Example 113, N-(2-Methoxy-6-(pyrazin-2-yl)pyridin-3-yl)-5-methyl-3-phenylisoxazole-4-carboxamide], the pKi is 7.38. Consider `COc1nc(-c2nccs2)ccc1NC(=O)c1c(-c2ccccc2)noc1C` [Example 66, N-(2-Methoxy-6-thiazol-2-yl-3-pyridyl)-5-methyl-3-phenyl-isoxazole-4-carboxamide], for which the pKi is 6.63. Regarding `COc1nc(-c2cnc(N)c(OC)n2)ccc1NC(=O)c1c(-c2ccccc2)noc1C` [Example 39, N-[6-(5-Amino-6-methoxy-pyrazin-2-yl)-2-methoxy-3-pyridyl]-5-methyl-3-phenyl-isoxazole-4-carboxamide], the negative-log Ki (pKi) is 7.49.

For the compound `COc1nc(-c2c(C)n[nH]c2C)ccc1NC(=O)c1c(-c2ccccc2)noc1C` [Example 25, N-[6-(3,5-Dimethyl-1H-pyrazol-4-yl)-2-methoxy-3-pyridyl]-5-methyl-3-phenyl-isoxazole-4-carboxamide], the pKi is 7.47. As for `COc1nc(-c2cncc(OC(F)F)c2)cnc1NC(=O)c1c(-c2ccccc2)noc1C` [Example 158, N-[5-[5-(Difluoromethoxy)-3-pyridyl]-3-methoxy-pyrazin-2-yl]-5-methyl-3-phenyl-isoxazole-4-carboxamide], the pKi is 8.08. As for `COc1nc(-c2ccc(SC(F)(F)F)nc2)ccc1NC(=O)c1c(-c2ccccc2)noc1C` [Example 76, N-(6-Methoxy-6′-((trifluoromethyl)thio)-[2,3′-bipyridin]-5-yl)-5-methyl-3-phenyl-isoxazole-4-carboxamide], the pKi is 6.53. As for `COc1nc(-n2ccnc2)ccc1NC(=O)c1c(-c2ccccn2)noc1C` [Example 146, N-(6-Imidazol-1-yl-2-methoxy-3-pyridyl)-5-methyl-3-(2-pyridyl) isoxazole-4-carboxamide], the figure is 7.10.

For the origin of these results see patent publication US20240425491A1, “HETEROARYL COMPOUNDS USEFUL IN THE TREATMENT OF COGNITIVE DISORDERS” (University College Cardiff Consultants Limited, priority 2021, published 2024).
